From publication PMC4678575 (MedChemComm, 2013)
Values belong to the compound of their own block, whether it stands above or below them.

Columns and labels:
CBP bromodomain = CBP bromodomain (Homo sapiens, UniProt Q92793); assay: AlphaScreen peptide displacement assay, CBP; format: binding; conditions: for affinity for the CBP bromodomain, in words: AlphaScreen using isolated bromodomains
[1] = target: first bromodomain of BRD4 (BRD4(1)) (Homo sapiens, UniProt O60885); assay: AlphaScreen peptide displacement assay, BRD4; format: binding; conditions: for inhibition of BRD4(1), in words: AlphaScreen using isolated bromodomains
[2] = Re-examination of stock solutions by LCMS; format: physicochemical; conditions: mass loss of 18 amu, likely dehydration to indene 16
CBP = CBP (Homo sapiens, UniProt Q92793); assay: DSF thermal shift, CBP; format: binding
Chain of CBP (Q92793 1085-1192 limits assumed): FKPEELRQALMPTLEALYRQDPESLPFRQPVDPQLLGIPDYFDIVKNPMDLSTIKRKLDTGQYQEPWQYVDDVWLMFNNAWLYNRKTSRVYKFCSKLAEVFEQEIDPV

Chain of CBP bromodomain (Q92793 1085-1192 limits assumed): as above

SMILES: Cc1noc(C)c1-c1ccc2c(c1)C(=O)CC2 [Compound 6]
affinity for the CBP bromodomain, in words (CBP bromodomain): no affinity
inhibition of BRD4(1), in words [1]: modest inhibitors

SMILES: Cc1noc(C)c1-c1ccc2nc[nH]c2c1 [Compound 8]
affinity/potency for BRD4(1) compared with CBP, in words ([1]; AlphaScreen): comparable affinity for both bromodomains

SMILES: Cc1noc(C)c1-c1ccc2c(c1)C(O)(c1ccccc1)CC2 (stereo not drawn) [Compound 15]
chemical stability of stock solutions, in words [2]: decomposition of the parent compound

SMILES: Cc1noc(C)c1-c1ccc2ncn(Cc3ccc(C#N)cc3)c2c1 [Compound 28a]
stabilization of CBP, in words (CBP): only minimal stabilization
selectivity for BRD4(1) over CBP ([1]; AlphaScreen BRD4(1) vs CBP): at least 100 fold

More lines, now with the values ahead:

affinity for the CBP bromodomain, in words (CBP bromodomain): no affinity
inhibition of BRD4(1), in words [1]: modest inhibitors
SMILES: Cc1noc(C)c1-c1ccc2cc[nH]c2c1 [Compound 7]

IC50 (CBP bromodomain): > 10 µM
SMILES: Cc1noc(C)c1-c1ccc2c(c1)C(OCc1ccccc1)CC2 (stereo not drawn) [Compound 9]
